US9770452B2, “Quinoxaline derivatives as GPR6 modulators” (Takeda Pharmaceutical Company Limited, priority 2012, dated 2017)

What was measured:
[1] = test system: haloperidol-induced catalepsy; assay: Haloperidol-Induced Catalepsy, in vivo rodent Parkinson's disease model (mice); conditions: mouse; for % reversal 30 min: 30 min after dosing with haloperidol; for % reversal 120 min: 120 min after dosing with haloperidol
Description: (§1) Haloperidol-Induced Catalepsy—In Vivo Rodent Parkinson's Disease Model
The motor symptoms of Parkinson's disease include akinesia, bradykinesia, rigidity, tremor and postural abnormalities and are associated with the loss of nigral dopaminergic cells and a decline in striatal dopamine levels. Administration of haloperidol to rodents leads to a transient parkinsonian-like state that is reversed by the administration of L-Dopa (Duty, S.; Jenner, P. Br. J. Pharmacol. (2011), 164, 1357-1391) and other drugs that have been clinically validated for the treatment of Parkinson's disease. Haloperidol antagonizes dopamine D2 and, to a lesser extent, D1 receptors in medium spiny neurons that comprise the indirect and direct pathways of the motor circuit respectively. The resultant block of striatal dopamine transmission results in abnormal downstream firing within the basal ganglia circuits that is manifest as symptoms of muscle rigidity and catalepsy. Catalepsy has been postulated to reflect the clinical features of Parkinson's disease, whereby patients experience an inability of to initiate movements.
Male Sprague-Dawley rats (Charles River, Calco, Italy) weighing 175-200 g are used. Alternatively, male C57Bl6 mice weighing 25-35 g were used. The cataleptic state was induced by the subcutaneous administration of the dopamine receptor antagonist haloperidol (0.3 mg/kg, sc), 90 min before testing the animals on the vertical grid test. For this test, the rats or mice were placed on the wire mesh cover of a 25 cm×43 cm plexiglass cage placed at an angle of about 70 degrees with the bench table. The subject was placed on the grid with all four legs abducted and extended (“frog posture”). The use of such an unnatural posture is essential for the specificity of this test for catalepsy. The time span from placement of the paws until the first complete removal of one paw (descent latency) was measured maximally for 120 sec for rats. For mice, the front paws of a mouse was placed on a horizontal metal bar raised 2″ above a Plexiglas platform and time was recorded for up to 30 seconds per trial. The test ended when the animal's front paws returned to the platform or after 30 seconds. The test was repeated three times and the average of the three trials was reported as the intensity index of catalepsy.
Catalepsy was measured 30 min, 120 min, and/or 240 min after dosing the subjects a 0.3 mg/kg i.p. dose of haloperidol along with the GPR6 modulator test compound. Test compound plasma and brain levels were determined by collected tissue samples at the end of the experiment, which was either at the 120 or 240 min time point. A representative number of compounds of the invention were administered in a dose range from 0.1 to 100 mg/kg i.p, sc or po in conjunction with haloperidol. The A2a antagonist KW6002 (istradefylline) was dosed at 0.6 mg/kg i.p. as a positive control. The compounds of the invention produced reversal of haloperidol-induced catalepsy. The results of a representative no. of compounds of this invention in this assay are disclosed in the table below.

GPR6 receptor = target: T1, GPR6 receptor (Homo sapiens, UniProt P46095); assay: Inhibition of cAMP Activity of GPR6 In Vitro Assay (CHO-K1 cells, HTRF cAMP); type: cell-based; conditions: compounds of Compound Table 1; inhibition of constitutive cAMP activity of GPR6 expressed in CHO-K1 cells; approximate IC50; read-out: IC50
T1 construct: expressed in transfected cells
How it was run: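 CHO-K1 cells with doxycycline-induced (1 μg/ml, 20 h) GPR6 treated with compounds 45 min at 37 °C in Ringer's buffer (pH 7.4) with 0.5% fatty acid free BSA. Constitutive cAMP measured by Lance HTRF Ultra cAMP; IC50 from four-parameter logistic fit.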

[2] = test system: haloperidol-induced catalepsy; assay: Haloperidol-Induced Catalepsy, in vivo rodent Parkinson's disease model (rats); conditions: rat, 10 mpk sc
Description: as §1
The motor symptoms of Parkinson's disease include akinesia, bradykinesia, rigidity, tremor and postural abnormalities and are associated with the loss of nigral dopaminergic cells and a decline in striatal dopamine levels. Administration of haloperidol to rodents leads to a transient parkinsonian-like state that is reversed by the administration of L-Dopa (Duty, S.; Jenner, P. Br. J. Pharmacol. (2011), 164, 1357-1391) and other drugs that have been clinically validated for the treatment of Parkinson's disease. […]
Male Sprague-Dawley rats (Charles River, Calco, Italy) weighing 175-200 g are used. […] The time span from placement of the paws until the first complete removal of one paw (descent latency) was measured maximally for 120 sec for rats. For mice, the front paws of a mouse was placed on a horizontal metal bar raised 2″ above a Plexiglas platform and time was recorded for up to 30 seconds per trial. […]
Catalepsy was measured 30 min, 120 min, and/or 240 min after dosing the subjects a 0.3 mg/kg i.p. dose of haloperidol along with the GPR6 modulator test compound. Test compound plasma and brain levels were determined by collected tissue samples at the end of the experiment, which was either at the 120 or 240 min time point. […]

T1 sequence (P46095 whole entry): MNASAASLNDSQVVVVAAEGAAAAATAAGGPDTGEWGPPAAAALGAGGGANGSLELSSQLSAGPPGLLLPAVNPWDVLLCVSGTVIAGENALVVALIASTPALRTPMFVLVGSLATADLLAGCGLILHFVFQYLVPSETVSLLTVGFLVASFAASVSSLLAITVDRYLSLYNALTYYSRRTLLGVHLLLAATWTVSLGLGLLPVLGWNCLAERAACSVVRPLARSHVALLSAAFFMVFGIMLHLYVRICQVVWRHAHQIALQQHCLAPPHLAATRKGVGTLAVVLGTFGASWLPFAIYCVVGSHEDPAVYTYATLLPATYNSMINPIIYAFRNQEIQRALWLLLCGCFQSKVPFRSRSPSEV

Molecule | % reversal 30 min ([1]; 30 mpk ip) [%] | % reversal 120 min ([1]; 30 mpk ip) [%] | IC50 (GPR6 receptor) [nM] | other results
Clc1cccc(Cl)c1CN1CCN(c2nc3ccccc3nc2NC2CC2)CC1.O=C(O)C(F)(F)F [Cpd 50, N-cyclopropyl-3-(4-(2,6-dichlorobenzyl)piperazin-1-yl)quinoxalin-2-amine, 2,2,2-trifluoroacetic acid salt] | 40.4 | 29.6 | – | –
Clc1ccc(Cl)c(CN2CCN(c3nc4ccccc4nc3NC3CC3)CC2)c1.O=C(O)C(F)(F)F [Cpd 33, N-cyclopropyl-3-(4-(2,5-dichlorobenzyl)piperazin-1-yl)quinoxalin-2-amine, 2,2,2-trifluoroacetic acid salt] | 48.1 | 41.4 | 2160 | –
3-(4-(2,4-difluorobenzyl)piperidin-1-yl)-2-(pyridin-3-ylamino)quinoxaline-6-carbonitrile, 2,2,2-trifluoroacetic acid salt [Cpd 415] | – | – | 64 | % reversal 30 min ([2]; 30 min after dosing with haloperidol): 36.9%; % reversal 120 min ([2]; 120 min after dosing with haloperidol): 25.1%
Clc1cccc(CN2CCN(c3nc4ccccc4nc3Nc3cccnc3)CC2)c1.O=C(O)C(F)(F)F [Cpd 53, 3-(4-(3-chlorobenzyl)piperazin-1-yl)-N-(pyridin-3-yl)quinoxalin-2-amine, 2,2,2-trifluoroacetic acid salt] | 13.6 | 15.4 | 1200 | –
N#Cc1ccc2nc(NC3CC3)c(N3CCN(Cc4cc(Cl)ccc4Cl)CC3)nc2c1 [Cpd 59, 2-(cyclopropylamino)-3-(4-(2,5-dichlorobenzyl)piperazin-1-yl) quinoxaline-6-carbonitrile] | 27.4 | 15.7 | 250 | % reversal 30 min ([1]; 10 mpk ip): 42%; % reversal 120 min ([1]; 10 mpk ip): 18.8%
(2-(cyclopropylamino)-3-(4-(2,4-difluorobenzyl)piperazin-1-yl)pyrido[3,4-b]pyrazin-7-yl)(morpholino)methanone, 2,2,2-trifluoroacetic acid salt [Cpd 611] | – | – | 44 | –
Clc1ccc(Cl)c(CN2CCN(c3nc4ncccc4nc3NC3CC3)CC2)c1 [Cpd 63, N-cyclopropyl-3-(4-(2,5-dichlorobenzyl)piperazin-1-yl)pyrido[2,3-b]pyrazin-2-amine] | – | – | 1130 | –
N-cyclopropyl-3-(4-(2,4-difluorobenzyl)piperidin-1-yl)-6-fluoroquinoxalin-2-amine, 2,2,2-trifluoroacetic acid salt [Cpd 479] | – | – | 140 | –
